# Measurements from publication PMC9421654, “Discovery of Substituted Di(pyridin-2-yl)-1,2,4-thiadiazol-5-amines as Novel Macrofilaricidal Compounds for the Treatment of Human Filarial Infections” (Journal of Medicinal Chemistry, 2022).
# Where two headings read alike, the source gives them in different places.
# Tests used:
# [1] = test system: O. gutturosa adult male worms; test: O. gutturosa adult worm ex vivo assay, motility; format: cell-based, Onchocerca gutturosa; conditions: Onchocerca gutturosa
# Procedure, shortened: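 Adult male O. gutturosa from naturally infected cattle were cultured in supplemented MEM at 37 °C, 5% CO2, with four worms per concentration in serial 1-in-4 dilutions. Motility (0–10 scale) was scored every 24 h to 120 h. EC50 (geomean, n=2) for motility reduction came from 4PL fits, and viability was checked by MTT at 120 h.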
# [2] = test system: O. gutturosa adult male worms; test: O. gutturosa adult worm ex vivo assay, MTT/formazan viability; format: cell-based, Onchocerca gutturosa; conditions: supplement, SD in brackets in the PDF table, read-out: O. gutturosa EC50 (uM) MTT viability inhibition
# Procedure, shortened: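 Adult male worms from naturally infected Gambian cattle were kept individually in MEM with 10% newborn calf serum at 37 °C, 5% CO2; four worms per concentration. Motility was scored 0-10 every 24 h to 120 h as a percentage of maximum, with ≥50% reduction versus untreated counted active. Afterwards, MTT (0.5 mg/mL, 30 min) formazan was read at 490 nm.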
# [3] = Kinetic solubility measurement; format: physicochemical; conditions: 10 mM DMSO stock solutions
# Procedure, shortened: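 Human and rat liver microsomes (0.3 mg/mL) with 1 mM NADPH and 3µM substrate, 30 minutes at 37 °C in pH 7.4 phosphate/MgCl2, triplicate; LC-MS/MS percentage remaining. LogD: octanol/aqueous buffer (pH 7.4, 2.2, 6.8, 5), 24 h shaking at room temperature. Kinetic solubility: 200 µM, 2% DMSO, 24 h, filtered.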
# THLE-2 cells = test: THLE-2 cytotoxicity assay (ATP); conditions: for IC50: Homo sapiens; for THLE (cytotoxicity) ATP LC50: THLE-2 cell line
# Procedure, shortened: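 THLE-2 cells in supplemented LHC-8 medium were exposed for 24 or 72 h to final concentrations of 0.01–300 μM. Viability was read as ATP by CellTiter-Glo luminescence and normalized to DMSO vehicle. IC50 came from nonlinear regression of dose-response curves.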
# [4] = read-out: O. gutturosa EC50 μM (SD), ex vivo adult worm motility reduction, SD in brackets
# [5] = read-out: O. gutturosa EC50 (uM) motility inhibition, supplement, SD in brackets in the PDF table
# [6] = read-out: O. gutturosa EC50, adult worm motility, bound stated
# [7] = THLE-2, 24 h, read-out: THLE IC50
SMILES,"EC50 [1, 4] [µM]","EC50 [1, 5] [µM]","EC50 [1, 6] [µM]",EC50 ([2]; Onchocerca gutturosa) [µM],EC50 [2] [µM],solubility kinetic at 24 h [3] [µM],IC50 (THLE-2 cells; [7]) [nM],"IC50 (THLE-2 cells; THLE-2, read-out: THLE IC50) [nM]",THLE (cytotoxicity) ATP LC50 (THLE-2 cells)
"Cc1cccnc1Nc1nc(-c2ccc(OC(C)C)cn2)ns1 [Compound 10, 3-(5-Isopropoxypyridin-2-yl)-N-(3-methylpyridin-2-yl)-1,2,4-thiadiazol-5-amine]",0.06,0.055,< 0.1,0.01,0.013,3.2,38200,,
"Cc1cccnc1Nc1nc(-c2ccc(OC3CC3)cn2)ns1 [Compound 11, 3-(5-Cyclopropoxypyridin-2-yl)-N-(3-methylpyridin-2-yl)-1,2,4-thiadiazol-5-amine]",0.11,0.106,,0.02,,1.84,> 200000,,
"Cc1cccnc1Nc1nc(-c2ccc(OC3CC4(C3)CN(C3CC3)C4)cn2)ns1 [Compound 12, 3-[5-[(2-Cyclopropyl-2-azaspiro[3.3]heptan-6-yl)oxy]-2-pyridyl]-N-(3-methyl-2-pyridyl)-1,2,4-thiadiazol-5-mine]",0.39,0.393,,0.03,0.033,13.1,,5200,
"Cc1cccnc1Nc1nc(-c2ccc(OC3CCN(C4CC4)CC3)cn2)ns1 [Compound 19, 3-[5-[(1-Cyclopropyl-4-piperidyl)oxy]-2-pyridyl]-N-(3-methyl-2-pyridyl)-1,2,4-thiadiazol-5-amine]",0.06,0.064,,0.19,,3.05,121000,,
"CC(C)Oc1ccc(-c2nsc(Nc3ncccc3C(C)C)n2)nc1 [Compound 25, 3-(5-Isopropoxy-2-pyridyl)-N-(3-isopropyl-2-pyridyl)-1,2,4-thiadiazol-5-amine]",0.1,0.099,,0.54,,2.58,,3200,
"Cc1ccnc(-c2nsc(Nc3ncccc3C(F)(F)F)n2)c1 [Compound 26, 3-(4-Methylpyridin-2-yl)-N-(3-(trifluoromethyl)pyridin-2-yl)-1,2,4-thiadiazol-5-amine]",0.03,0.029,,0.07,0.069,0.9,65600,,
CC(C)c1ccnc(-c2nsc(Nc3ncccc3C(F)(F)F)n2)c1 [Compound 27],0.01,,< 0.1,0.07,0.069,1.6,,,
CNc1cccnc1Nc1nc(-c2ccc(OC(C)C)cn2)ns1 [Compound 30],0.22,0.219,,0.59,,1.9,,17500,
"CC(C)Oc1ccc(-c2nsc(Nc3ncccc3N(C)C)n2)nc1 [Compound 31, N^2-(3-(5-Isopropoxypyridin-2-yl)-1,2,4-thiadiazol-5-yl)-N3,N3-dimethylpyridine-2,3-diamine]",0.08,0.083,,0.24,,22.5,36000,,did not exhibit significant cellular cytotoxity
CN(C)c1cccnc1Nc1nc(-c2ccc(OC3CC3)cn2)ns1 [Compound 32],0.74,0.743,,0.56,,8.92,,800,
"CC(C)c1ccnc(-c2nsc(Nc3cc(C(F)(F)F)ccn3)n2)c1 [Compound 35, 3-(4-Isopropylpyridin-2-yl)-N-(4-(trifluoromethyl)pyridin-2-yl)-1,2,4-thiadiazol-5-amine]",0.05,,,0.15,,< 1,,2300,
"CC(=O)N(C)c1cccnc1Nc1nc(-c2ccc(OC(C)C)cn2)ns1 [Compound 47, N-(2-((3-(5-Isopropoxypyridin-2-yl)-1,2,4-thiadiazol-5-yl)amino)pyridin-3-yl)-N-methylacetamide]",1.07,,,1.9,,109,,,did not exhibit significant cellular cytotoxity
"CC(C)Oc1ccc(-c2nsc(Nc3ncccc3N(C)C(=O)C3CC3)n2)nc1 [Compound 50, N-(2-((3-(5-Isopropoxypyridin-2-yl)-1,2,4-thiadiazol-5-yl)amino)pyridin-3-yl)-N-methylcyclopropanecarboxamide]",0.56,0.55,,2.3,,2.71,,7400,
